The text below walks through data of patent US20070167499A1, “Biaryl linked hydroxamates: preparation and pharmaceutical applications” (A*BIO Pte Ltd., priority 2003, published 2007).

Assay [1] deals with Ramos Burkitt-lymphoma cells. Description: Apoptosis assay (Annexin V / PI flow cytometry). Type of assay: cell-based, human. The note with it: 48 h after treatment with 10 μM. The source says: In various therapies such as for proliferative disorders like cancer, the selective induction of apoptosis in proliferating cells such as tumor cells is one of the desirable approaches, and can be mediated by treatment with various anti-proliferative compounds [Blagosklonny MV, Oncogene, 23(16): 2967 (2004); Kaufmann and Eamshaw, Exp Cell Res. 256(1): 42-9 (2000)]. Programmed cell death or apoptosis is the cellular response to stress factors such as DNA damage introduced during conventional anti-cancer treatment. The concerted sequence of events during apoptosis, clearly differentiate this pathway from a non-coordinated form of cell death called necrosis. During the course of apoptosis, characteristic phenotypical cellular changes occur, which include the condensation of chromatin, the shrinkage of cells and finally the fragmentation of chromosomal DNA. One of the very early change caused by apoptotic events occurs in the phospholipids bilayer of the plasma membrane. The phospholipid phosphatidylserine is translocated from the inner to the outer side of the plasma-membrane and, as a result, is exposed to the extracellular space. One way of detecting early apoptotic cells is to determine the amount of phosphatidyl-serine at the extracellular side of the plasma-membrane which is accomplished by the standard flow cytometric method of Annexin V staining. The phospholipids recognizing protein Annexin V binds with high affinity to these inverted and exposed phosphatidyl-serines.
The ability of the compounds in this invention to induce apoptosis was tested in Ramos Burkitt-lymphoma cells. This cell line is one of the gold standard cell lines commonly used as a tissue culture model for B cell lymphoma. Representative compounds as indicated below were added to 80,000 cells per 500 μl growth medium (RPMI1640 medium supplemented with 2 mM L-Glutamine, 10% heat-inactivated FBS, 1 mM Na-Pyruvate and 10 mM HEPES) in 24 well format at various concentrations. Two days after the start of treatment, cells were collected and subjected to the Annexin V staining protocol following the instructions of the manufacturer (BD Biosciences). By using propidium iodide (PI) as a viability control, cells that stain positive for Annexin V, but negative for PI, are undergoing apoptosis.

The target of a further assay is T1, HDAC8 enzyme (GST-HDAC8) (Homo sapiens, UniProt Q9BY41).
T1 construct: Amplification of human HDAC1 and HDAC8 coding region from this cDNA library; made in house; host or cells: SF9 insect cells (baculovirus, pFASTBAC vector)
T1 sequence (Q9BY41 1-377): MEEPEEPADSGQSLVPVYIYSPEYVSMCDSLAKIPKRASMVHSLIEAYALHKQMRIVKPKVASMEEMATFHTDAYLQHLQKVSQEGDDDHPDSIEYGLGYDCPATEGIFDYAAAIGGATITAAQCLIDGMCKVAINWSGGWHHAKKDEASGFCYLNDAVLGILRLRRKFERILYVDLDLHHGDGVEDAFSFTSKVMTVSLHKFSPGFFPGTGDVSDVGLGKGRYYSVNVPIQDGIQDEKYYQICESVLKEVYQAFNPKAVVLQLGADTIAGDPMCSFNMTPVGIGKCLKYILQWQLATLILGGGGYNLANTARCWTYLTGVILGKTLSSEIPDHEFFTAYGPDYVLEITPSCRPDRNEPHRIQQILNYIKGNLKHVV
Description: In vitro HDAC assay for determination of IC50 values (BIOMOL fluorescent-based HDAC activity assay), HDAC8. The assay is classed as biochemical. The note with it: 500 nM HDAC8 enzyme, 200 μM Flur de lys p53 peptide substrate, room temperature 2 h; read-out: HDAC8 Enzyme Activity, IC50. The protocol: (§1) Recombinant GST-HDAC1 and GST-HDAC-8 Protein expression and purification
Human cDNA library was prepared using cultured SW620 cells. Amplification of human HDAC1 and HDAC8 coding region from this cDNA library was cloned separately into the baculovirus expression pDEST20 vector and pFASTBAC vector respectively (GATEWAY Cloning Technology, Invitrogen Pte Ltd). […] Recombinant baculovirus was prepared using the Bac-To-Bac method following the manufacturer's instruction (Invitrogen Pte Ltd).
(§2) Expression of GST-HDAC1 or HTGST-HDAC8 was done by infecting SF9 cells (Invitrogen Pte Ltd) with pDEST20-HDAC1 or pFASTBAC-GST-HDAC8 baculovirus at MOI=1 for 48 h. Soluble cell lysate was incubated with pre-equilibrated Glutathione Sepharose 4B beads (Amersham) at 4° C. for 2 h. The beads were washed with PBS buffer for 3 times. The GST-HDAC1 protein or GST-HDAC8 protein was eluted by elution buffer containing 50 mM Tris, pH8.0, 150 mM NaCl, 1% Triton X-100 and 10 mM or 20 mM reduced Glutathione. The purified GST-HDAC1 protein or purified GST-HDAC8 protein was dialyzed with HDAC storage buffer containing 10 mM Tris, pH7.5, 100 mM NaCl and 3 mM MgCl2. 20% Glycerol was added to purified GST-HDAC1 protein or purified GST-HDAC8 before storage at −80° C.
(§3) In vitro HDAC assay for determination of IC50 values
The assay has been carried out in 96 well format and the BIOMOL fluorescent-based HDAC activity assay has been applied. […] Flur de lys Developer was added and the reaction was incubated for 10 min. Briefly, deacetylation of the substrate sensitizes it to the developer, which then generates a fluorophore The fluorophore is excited with 360 nm light and the emitted light (460 nm) is detected on a fluorometric plate reader (Tecan Ultra Microplate detection system, Tecan Group Ltd.).
(§4) The analytical software, Prism 3.0® (GraphPad Software Inc) has been used to generate IC50 from a series of data.

The target of the next assay is T2, HDAC1 enzyme (GST-HDAC1) (Homo sapiens, UniProt Q13547).
T2 construct: Amplification of human HDAC1 and HDAC8 coding region from this cDNA library; made in house; host or cells: SF9 insect cells (baculovirus, pDEST20 vector)
Description: In vitro HDAC assay for determination of IC50 values (BIOMOL fluorescent-based HDAC activity assay), HDAC1. Conditions: 600 nM HDAC1 enzyme, 500 μM Flur de lys generic substrate, room temperature 2 h. The assay is classed as biochemical. How it is done:
as §1
Human cDNA library was prepared using cultured SW620 cells. Amplification of human HDAC1 and HDAC8 coding region from this cDNA library was cloned separately into the baculovirus expression pDEST20 vector and pFASTBAC vector respectively (GATEWAY Cloning Technology, Invitrogen Pte Ltd). The pDEST20-HDAC1 and pFASTBAC-HTGST-HDAC8 constructs were confirmed by DNA sequencing. Recombinant baculovirus was prepared using the Bac-To-Bac method following the manufacturer's instruction (Invitrogen Pte Ltd). Baculovirus titer was determined by plaque assay to be about 10^8 PFU/ml.
as §2, §3
The assay has been carried out in 96 well format and the BIOMOL fluorescent-based HDAC activity assay has been applied. The reaction composed of assay buffer, containing 25 mM Tris pH 7.5, 137 mM NaCl, 2.7 mM KCl, 1 mM MgCl2, 1 mg/ml BSA, tested compounds, 500 nM HDAC8 enzyme or 600 nM HDAC1 enzyme, 200 μM Flur de lys p53 peptide substrate for HDAC8 enzyme or 500 μM Flur de lys generic substrate for HDAC1 enzyme and subsequently was incubated at room temperature for 2 h. Flur de lys Developer was added and the reaction was incubated for 10 min. Briefly, deacetylation of the substrate sensitizes it to the developer, which then generates a fluorophore The fluorophore is excited with 360 nm light and the emitted light (460 nm) is detected on a fluorometric plate reader (Tecan Ultra Microplate detection system, Tecan Group Ltd.).
as §4

Assay [2] deals with acetylated H3 in Colo205 cells. Description: Histone H3 acetylation assay (western-blot). Type of assay: cell-based, human. The arrangement: key: “Active” means accumulation of acetylated histone was observed when compared with control (without compound). Conditions: Colo205 cells, 0.1, 1, 5 and 10 μM, after 24 h. The protocol: (§5) Histone H3, H4 and H2A acetylation assay
A hallmark of histone deacetylase (HDAC) inhibition is the increase in the acetylation level of histones. Histone acetylation, including H3, H4 and H2A can be detected by immuno-blotting (western-blot). Colo205 cells, approximately 1.5×10^6 cells/10 cm dish, were seeded in the previously described medium, cultivated for 24 h and subsequently treated with HDAC inhibitory agents at 0.1, 1, 5 and 10 μM final concentration. […] The protein concentration was quantified using BCA method (Sigma Pte Ltd). The protein lysate was separated using 4-12% bis-tris SDS-PAGE gel (Invitrogen Pte Ltd) and was transferred onto PVDF membrane (BioRad Pte Ltd). The membrane was probed separately using primary antibody specific for acetylated H3, acetylated H4 or acetylated H2A (Upstate Pte Ltd). The detection antibody, goat anti rabbit antibody conjugated with horse radish peroxidase (HRP) was used according to the manufacturing instruction (Pierce Pte Ltd). After removing the detection antibody from the membrane, an enhanced chemiluminescent substrate for detection of HRP (Pierce Pte Ltd) was added onto the membrane. After removing the substrate, the membrane was exposed to an X-ray film (Kodak) for 1 sec-20 mins. The X-ray film was developed using the X-ray film processor. The density of each band observed on the developed film could be analysed using UVP Bioimaging software (UVP, Inc, Upland, Calif.). The values were then normalized against the density of actin in the corresponding samples to obtain the expression of the protein.

Assay [3] relates to acetylated H4 in Colo205 cells. Description: Histone H4 acetylation assay (western-blot). Type of assay: cell-based, human. The arrangement: key: “Active” means accumulation of acetylated histone was observed when compared with control (without compound). The note with it: Colo205 cells, 0.1, 1, 5 and 10 μM, after 24 h. The protocol:
as §5
A hallmark of histone deacetylase (HDAC) inhibition is the increase in the acetylation level of histones. Histone acetylation, including H3, H4 and H2A can be detected by immuno-blotting (western-blot). Colo205 cells, approximately 1.5×10^6 cells/10 cm dish, were seeded in the previously described medium, cultivated for 24 h and subsequently treated with HDAC inhibitory agents at 0.1, 1, 5 and 10 μM final concentration. After 24 h, cells were harvested and lysed according to the instruction from Sigma Mammalian Cell Lysis Kit. The protein concentration was quantified using BCA method (Sigma Pte Ltd). The protein lysate was separated using 4-12% bis-tris SDS-PAGE gel (Invitrogen Pte Ltd) and was transferred onto PVDF membrane (BioRad Pte Ltd). The membrane was probed separately using primary antibody specific for acetylated H3, acetylated H4 or acetylated H2A (Upstate Pte Ltd). The detection antibody, goat anti rabbit antibody conjugated with horse radish peroxidase (HRP) was used according to the manufacturing instruction (Pierce Pte Ltd). After removing the detection antibody from the membrane, an enhanced chemiluminescent substrate for detection of HRP (Pierce Pte Ltd) was added onto the membrane. After removing the substrate, the membrane was exposed to an X-ray film (Kodak) for 1 sec-20 mins. The X-ray film was developed using the X-ray film processor. The density of each band observed on the developed film could be analysed using UVP Bioimaging software (UVP, Inc, Upland, Calif.). The values were then normalized against the density of actin in the corresponding samples to obtain the expression of the protein.

Each structure is given as a SMILES string.

T2 sequence (Q13547 whole entry): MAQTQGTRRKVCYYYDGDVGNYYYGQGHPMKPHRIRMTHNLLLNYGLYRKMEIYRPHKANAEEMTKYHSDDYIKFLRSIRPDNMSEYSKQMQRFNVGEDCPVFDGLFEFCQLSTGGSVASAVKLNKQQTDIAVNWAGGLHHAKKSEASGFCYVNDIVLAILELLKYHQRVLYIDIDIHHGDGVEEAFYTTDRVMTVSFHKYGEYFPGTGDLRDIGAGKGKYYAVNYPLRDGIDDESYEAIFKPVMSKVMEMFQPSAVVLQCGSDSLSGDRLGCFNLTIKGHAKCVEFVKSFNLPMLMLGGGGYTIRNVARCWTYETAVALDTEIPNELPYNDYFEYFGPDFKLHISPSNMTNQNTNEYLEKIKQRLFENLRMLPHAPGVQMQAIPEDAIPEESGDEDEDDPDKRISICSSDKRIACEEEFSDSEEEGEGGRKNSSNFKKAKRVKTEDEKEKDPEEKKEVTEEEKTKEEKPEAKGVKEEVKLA

Turning to `O=C(Cc1ccccc1)NCc1cccc(-c2ccc(C(=O)NO)cc2)c1` [3′-(Phenylacetylamino-methyl)-biphenyl-4-carboxylic acid hydroxyamide, reference compound], in assay [1], the “% cells in late apoptosis (Ramos)” value was 89%.
On to `Cc1nc(C2CCCNC2)sc1C(=O)Nc1nc(-c2ccc(CC(=O)NO)s2)cs1` (stereo not drawn) [Example 6], for which the half-inhibitory concentration (IC50) worked out at 40 nM at HDAC8 enzyme (GST-HDAC8) and 2780 nM against HDAC1 enzyme (GST-HDAC1).
For the compound `O=C(Cc1ccc(-c2csc(NC(=O)c3ccc(N4CCNCC4)cc3)n2)s1)NO` [Example 8], the IC50 is 89 nM on HDAC8 enzyme (GST-HDAC8) and 2760 nM against HDAC1 enzyme (GST-HDAC1). Also, the “% cells in late apoptosis (Ramos)” value in assay [1] was 74%.
`O=C(Cc1ccc(-c2csc(NC(=O)c3ccn(CC4CCNCC4)c3-c3ccccc3)n2)s1)NO` [Example 10]: the 50% inhibitory concentration (IC50) at HDAC8 enzyme (GST-HDAC8) was 140 nM; against HDAC1 enzyme (GST-HDAC1), > 100000 nM.
The like results for `O=C(NO)c1ccc(-c2csc(NS(=O)(=O)c3ccccc3)n2)s1` [Example 15, 5-(2-Benzenesulfonylamino-thiazol-4-yl)-thiophene-2-carboxylic acid hydroxyamide] were, in that order, 290 nM and 1130 nM.
Take `O=C(COc1ccccc1)Nc1nc(-c2ccc(C(=O)NO)s2)cs1` [Example 16, 5-[2-(2-Phenoxy-acetamino)-thiazol-4-yl]-thiophene-2-carboxylic acid hydroxyamide]: the IC50 at HDAC8 enzyme (GST-HDAC8) was determined as 38 nM; against HDAC1 enzyme (GST-HDAC1), 700 nM. Besides, in assay [1], the “% cells in late apoptosis (Ramos)” value was 90%.
Regarding `O=C(Cc1ccccc1)Nc1nc(-c2cc(C(=O)NO)no2)cs1` [Example 17, 5-(2-Phenylacetylamino-thiazol-4-yl)-isoxazole-3-carboxylic acid hydroxyamide], the figures for the 50% inhibitory concentration (IC50) at HDAC8 enzyme (GST-HDAC8) and on HDAC1 enzyme (GST-HDAC1) were 340 nM and 1400 nM, respectively.
The like results for `O=C(Nc1cccc(-c2cc(C(=O)NO)n[nH]2)c1)c1ccccc1` [Example 18, 5-(3-Benzoylamino-ihenyl)-1H-pyrazole-3-carboxylic acid hydroxyamide] were, in that order, 350 nM and > 100000 nM.
For `O=C(NO)c1ccc(-c2ccc(CNCCc3c[nH]c4ccccc34)cc2)s1` [Example 28], in that order: 14 nM and 15 nM.
Turning to `O=C(NO)c1ccc(-c2cccc(CNCCc3ccccc3)c2)s1` [Example 29], the figures for the IC50 on HDAC8 enzyme (GST-HDAC8) and against HDAC1 enzyme (GST-HDAC1) were 26 nM and 87 nM, respectively.
Consider `O=C(NO)c1ccc(-c2cccc(CNCCc3ccccn3)c2)s1` [Example 30], for which the “Histone 3 acetylation” value in assay [2] is reported as “Active”. Also, the IC50 on HDAC8 enzyme (GST-HDAC8) came to 50 nM; on HDAC1 enzyme (GST-HDAC1) it was 220 nM. Further, in assay [3], the “Histone 4 acetylation” value was “Active”.
For `O=C(NO)c1ccc(-c2cccc(CNCCc3c[nH]c4ccccc34)c2)s1` [Example 31], the IC50 at HDAC8 enzyme (GST-HDAC8) turned out to be 8 nM; against HDAC1 enzyme (GST-HDAC1) it was 17 nM.
For `O=C(NO)c1ccc(-c2ccc(NCc3ccccc3)cc2)s1` [Example 44], the IC50 on HDAC8 enzyme (GST-HDAC8) was 110 nM; against HDAC1 enzyme (GST-HDAC1) it was 1420 nM. In assay [1], the “% cells in late apoptosis (Ramos)” value came out at 82%.
